Measurements: US7405205B2, “Antitumor antisense sequences directed against R1 and R2 components of ribonucleotide reductase” (Lorus Therapeutics Inc., priority 1996, dated 2008)

Key:
Test in all cases: Drug sensitivity by relative colony forming efficiency
Assay type in all cases: cell-based, mouse
[1] = tested on: B3/SH cells (BALB/c 3T3, empty vector)
[2] = tested on: N/R2+ASR2 cells (NIH-3T3, R2 and R2 antisense vectors)
[3] = tested on: B3/R2c2 cells (clone of B3/mR2)
[4] = tested on: RP3/SH cells (10T½, H-ras and mutant p53)
[5] = tested on: RP6/SH cells (10T½, H-ras and mutant p53)
[6] = tested on: RP3/ASR2 cells (RP3 with R2 antisense vector)
[7] = tested on: N/SH cells (NIH-3T3, empty vector)
[8] = tested on: N/R2-4 cells (NIH-3T3, R2 expression vector)
[9] = tested on: B3/mR2 cells (BALB/c 3T3, R2 expression vector)
[10] = tested on: RP6/ASR2 cells (RP6 with R2 antisense vector)

NC(=O)NO [Hydroxyurea, hydroxyurea]
Relative Colony Forming Efficiencies ([1]; Hydroxyurea 0.1 mM): 3.3 ± 1.4 × 10^4
Relative Colony Forming Efficiencies ([1]; Hydroxyurea 0.4 mM): 0.17 ± 0.19 × 10^4
Relative Colony Forming Efficiencies ([1]; Hydroxyurea 0.5 mM): 0.21 ± 0.14 × 10^4
Relative Colony Forming Efficiencies ([1]; Hydroxyurea 0.6 mM): 0.41 ± 0.22 × 10^4
Relative Colony Forming Efficiencies ([1]; Hydroxyurea 0.8 mM): 0.19 ± 0.62 × 10^4
Relative Colony Forming Efficiencies ([2]; Hydroxyurea 0.3 mM): 0.49 ± 0.34 × 10^4
Relative Colony Forming Efficiencies ([2]; Hydroxyurea 0.4 mM): 0.14 ± 0.14 × 10^4
Relative Colony Forming Efficiencies ([3]; Hydroxyurea 0.1 mM): 830.8 ± 97.0 × 10^4
Relative Colony Forming Efficiencies ([3]; Hydroxyurea 0.4 mM): 33.7 ± 11.0 × 10^4
Relative Colony Forming Efficiencies ([3]; Hydroxyurea 0.5 mM): 26.9 ± 11.9 × 10^4
Relative Colony Forming Efficiencies ([3]; Hydroxyurea 0.6 mM): 12.5 ± 4.6 × 10^4
Relative Colony Forming Efficiencies ([3]; Hydroxyurea 0.8 mM): 13.2 ± 6.4 × 10^4
Relative Colony Forming Efficiencies ([4]; Hydroxyurea 0.1 mM): 263.6 ± 19.3 × 10^4
Relative Colony Forming Efficiencies ([4]; Hydroxyurea 0.2 mM): 53.6 ± 13.7 × 10^4
Relative Colony Forming Efficiencies ([4]; Hydroxyurea 0.3 mM): 20.8 ± 7.5 × 10^4
Relative Colony Forming Efficiencies ([4]; Hydroxyurea 0.4 mM): 5.8 ± 1.9 × 10^4
Relative Colony Forming Efficiencies ([4]; Hydroxyurea 0.5 mM): 4.8 ± 1.9 × 10^4
Relative Colony Forming Efficiencies ([4]; Hydroxyurea 0.6 mM): 0.7 ± 0.3 × 10^4
Relative Colony Forming Efficiencies ([4]; Hydroxyurea 0.8 mM): 0.8 ± 0.3 × 10^4
Relative Colony Forming Efficiencies ([5]; Hydroxyurea 0.1 mM): 201.3 ± 27.2 × 10^4
Relative Colony Forming Efficiencies ([5]; Hydroxyurea 0.2 mM): 35.5 ± 8.4 × 10^4
Relative Colony Forming Efficiencies ([5]; Hydroxyurea 0.3 mM): 12.6 ± 2.4 × 10^4
Relative Colony Forming Efficiencies ([5]; Hydroxyurea 0.4 mM): 10.8 ± 4.1 × 10^4
Relative Colony Forming Efficiencies ([5]; Hydroxyurea 0.5 mM): 12.1 ± 3.9 × 10^4
Relative Colony Forming Efficiencies ([5]; Hydroxyurea 0.6 mM): 6.6 ± 2.9 × 10^4
Relative Colony Forming Efficiencies ([5]; Hydroxyurea 0.8 mM): 1.7 ± 1.2 × 10^4
Relative Colony Forming Efficiencies ([6]; Hydroxyurea 0.1 mM): 109.3 ± 43 × 10^4
Relative Colony Forming Efficiencies ([6]; Hydroxyurea 0.2 mM): 22.9 ± 3.1 × 10^4
Relative Colony Forming Efficiencies ([6]; Hydroxyurea 0.3 mM): 6.6 ± 2.5 × 10^4
Relative Colony Forming Efficiencies ([6]; Hydroxyurea 0.4 mM): 1.0 ± 0.2 × 10^4
Relative Colony Forming Efficiencies ([6]; Hydroxyurea 0.5 mM): 0.2 ± 0.1 × 10^4
Relative Colony Forming Efficiencies ([6]; Hydroxyurea 0.6 mM): 0.3 ± 0.1 × 10^4
Relative Colony Forming Efficiencies ([6]; Hydroxyurea 0.8 mM): 0.1 ± 0.05 × 10^4
Relative Colony Forming Efficiencies ([7]; Hydroxyurea 0.3 mM): 1.14 ± 0.12 × 10^4
Relative Colony Forming Efficiencies ([7]; Hydroxyurea 0.4 mM): 0.71 ± 0.17 × 10^4
Relative Colony Forming Efficiencies ([8]; Hydroxyurea 0.3 mM): 46.1 ± 9.8 × 10^4
Relative Colony Forming Efficiencies ([8]; Hydroxyurea 0.4 mM): 18.0 ± 6.7 × 10^4
Relative Colony Forming Efficiencies ([9]; Hydroxyurea 0.1 mM): 1310 ± 319.0 × 10^4
Relative Colony Forming Efficiencies ([9]; Hydroxyurea 0.4 mM): 14.6 ± 4.0 × 10^4
Relative Colony Forming Efficiencies ([9]; Hydroxyurea 0.5 mM): 6.5 ± 4.6 × 10^4
Relative Colony Forming Efficiencies ([9]; Hydroxyurea 0.6 mM): 5.2 ± 3.7 × 10^4
Relative Colony Forming Efficiencies ([9]; Hydroxyurea 0.8 mM): 2.6 ± 1.4 × 10^4
Relative Colony Forming Efficiencies ([10]; Hydroxyurea 0.1 mM): 43.8 ± 12.3 × 10^4
Relative Colony Forming Efficiencies ([10]; Hydroxyurea 0.2 mM): 8.6 ± 2.5 × 10^4
Relative Colony Forming Efficiencies ([10]; Hydroxyurea 0.3 mM): 4.5 ± 1.1 × 10^4
Relative Colony Forming Efficiencies ([10]; Hydroxyurea 0.4 mM): 1.2 ± 0.5 × 10^4
Relative Colony Forming Efficiencies ([10]; Hydroxyurea 0.5 mM): 1.8 ± 0.9 × 10^4
Relative Colony Forming Efficiencies ([10]; Hydroxyurea 0.6 mM): 1.5 ± 0.7 × 10^4
Relative Colony Forming Efficiencies ([10]; Hydroxyurea 0.8 mM): 0.4 ± 0.3 × 10^4
